In the case of `Cc1ccc(C(O[Si](C)(C)C(C)(C)C)C(=O)NO)cc1` (configuration not stated), the melting point (commonly the temperature, or range, at which the solid turns liquid) was 109 to 111 °C.
To `CCCCc1ccc(OC)c(-c2csc(NC(=O)c3ccc(C(=O)N4CCC(N5CCC[C@H]5CO)CC4)cc3)n2)c1` belongs 199 °C; to `Cc1ccc2c(c1)C(c1ccccc1)(C(F)(F)F)c1cc(C)ccc1O2`, 150 to 151 °C.
For the molecule `CCC(=O)S(=O)(=O)c1ccc(C=C(C)c2ccc3c(c2)C(C)(C)CCC3(C)C)cc1`, the melting point is 140 to 141 °C.
`COc1c(Cl)cc(F)cc1C1OC(=O)NC1=O` (configuration not stated) registered a melting point of 177 to 179 °C.
Molecule `COc1cc(C)c(Cc2cnoc2)cc1OC` yielded a melting point of 68.5 to 70.5 °C.
The molecule `CC(=O)NCC1=C(N2CCCC2=O)c2cc([N+](=O)[O-])ccc2OC1(C)C` registered a melting point of 205 °C.
Take `Cc1cc2cc(Nc3ccnc4cc(-c5ccc(C=O)cc5)sc34)ccc2[nH]1`: the melting point fell in the range of 223 to 240 °C.
Take `CC(=O)CC(=O)CCCCCCCC(=O)CC(C)=O`: the melting point was 73 to 74 °C.
The molecule `CC1(NC2=NS(=O)(=O)c3sc(Cl)cc3N2)CCCCC1` registered a melting point of 218 to 219 °C.
As to `C#CCn1nnc(SC(c2ccccc2)c2ccccc2)n1`, the melting point was 85 to 86 °C.
To `CN(CCC#N)CCc1coc(-c2cc(C(C)(C)C)c(O)c(C(C)(C)C)c2)n1` belongs 104 to 105 °C.
As to `CCOC(=O)CC(=O)c1cc(F)c(S(=O)(=O)c2ccccc2)nc1Nc1ccc(F)cc1F`, the melting point is 140 to 141 °C.
`O=C(CCC(=O)N(CCO)CCO)N(CCO)CCO` had a melting point of 89 to 91 °C.
The molecule `NS(=O)(=O)c1cc(C(=O)O)cc(SCc2ccccc2)c1Sc1ccccc1` showed a melting point of 208 to 209 °C.
As to `O=C(O)Cn1c(=O)n(CCCCN2CCC(OC(c3ccccc3)c3ccccc3)CC2)c(=O)c2ccccc21`, the melting point is 153 to 155 °C.
In the case of `Cc1nc(Nc2ccc(F)c(Cl)c2)c2nc(N3CCC(N)CC3)ncc2n1`, the melting point is 156 to 163 °C.
The molecule `CC(=O)OCC1OC(OC(C)=O)C(N=[N+]=[N-])C(OC(C)=O)C1OC1OC(COC(C)=O)C(OC(C)=O)C(OC(C)=O)C1OC(C)=O` (configuration not stated) returned a melting point of 77 to 78 °C.
Molecule `O=C(NC1CN2CCC1CC2)c1cccc2oc(-c3ccc(F)cc3)nc12` (configuration not stated) showed a melting point of 208 to 209 °C.
For `CCOC(=O)C[C@@H]1CCCC[C@H]1n1nc(-c2c(-c3ccccc3)nn3ccccc23)ccc1=O` (relative stereo), the melting point is 151 to 152 °C.
To `COC(=O)[C@H](/C=C/[C@H](Cc1ccccc1)NC(=O)OC(C)(C)C)Cc1ccccc1` belongs 84 to 85 °C.
On to `COc1cc(Nc2c(C#N)cnc3cc(I)ccc23)c(Cl)cc1Cl`, for which the melting point was in the range of 243 to 245 °C.
In turn, `CCNC(=O)Nc1nc2cc(-c3cccnc3)cc(-c3nnc(C)o3)n2n1` yielded a melting point of 318 to 321 °C.
The molecule `COC(=O)c1cccc(-c2nc(COc3ccc(COc4nn(-c5ccccc5)cc4/C=C/c4nc(N5CCOCC5)sc4C)cc3OC)c(C)o2)c1` yielded a melting point of 183 to 184 °C.
Regarding `O=[N+]([O-])c1cn2c(n1)O[C@@H](COc1ccc(N3CCC(Nc4ccc(OC(F)(F)F)cc4)CC3)cc1)CC2`, the melting point fell in the range of 189 to 190 °C.
The molecule `O=C(CSc1nc2ccccc2[nH]1)c1ccc(Br)cc1` yielded a melting point of 241 to 245 °C.
To `COc1cn(C(c2ccccc2)c2ccccc2)c(=O)o1` belongs 125 to 127 °C; to `CCOC(=O)CCCCCCC1C(=O)NC(=O)N1CCC(=O)C1CCCCC1` (configuration not stated), 77.5 to 78.5 °C.
As for `Cc1cc2[nH]c(=O)c(=O)[nH]c2cc1Cl`, the melting point is over 330 °C.
The molecule `Cc1cc(C(=O)/C=C/C(=O)O)c(C)o1` had a melting point of 144 to 147 °C.
To `CS(=O)(=O)c1ccc(-c2cc(F)c(F)cc2-c2ccc(F)cc2)cc1` belongs 148 °C; to `COc1ccc(-c2cc3ccccc3[nH]2)cc1NCc1ccc(O)c([N+](=O)[O-])c1`, 165 to 166 °C.
As for `C[C@H](Cn1ncnn1)n1cnc2cc3c(=O)n([C@H](C)Cn4cnnn4)nnc3cc2c1=O`, the melting point was 168 to 170 °C.
To `CCN1C(=O)C2C3CCC(CC3)C2(c2ccc(Cl)c(Cl)c2)C1=O` (configuration not stated) belongs 131 to 134 °C.
In turn, `CC(C)C[C@H](NC(=O)OCc1ccccc1)C(=O)N[C@@H](Cc1ccccc1)C(=O)O` registered a melting point of 120 to 122 °C.
`OC1(c2ccccc2)CNN=C1c1ccc(Cl)cc1` (configuration not stated) displayed a melting point of 195 to 196 °C.
In the case of `Cc1cc(O)c(S(=O)CCC(C)C)c(=O)o1` (configuration not stated), the melting point lay within 80 to 81 °C.
`O=[N+]([O-])c1ccccc1Nc1nc(-c2ccccc2)cs1` gave a melting point of 114 to 116 °C.
In turn, `CC(C)(c1ccc2ncccc2c1)n1nnc2ccc(-c3cn[nH]c3)nc21` gave a melting point of 218 to 220 °C.
`CCOC(=O)CNC(=O)N1CCn2c(c(C(N)=O)c(Cl)c2-c2ccccc2)C1`: the melting point lay in the range of 94 to 97 °C.
Turning to `Fc1cc(CC2(Cc3ccncc3)c3ccccc3Oc3ncccc32)ccn1` (configuration not stated), the melting point lay within 206 to 208 °C.
As to `Nc1noc(-c2nc(Cl)c(N)nc2N)n1`, the melting point was determined as 278 °C.
`CCOc1ccc2c(c1)C(C)=CC(C)(C)N2C(=O)OC` had a melting point of 54.5 to 56.5 °C.
Turning to `CCC(=O)N[C@@H](C)C(=O)N1CCC[C@H]1C(=O)O`, the melting point lay in the range of 169 to 171 °C.
To `CC(=NO)c1ccccc1NC(C(N)=O)c1c(Cl)cccc1Cl` (configuration not stated) belongs 115 °C.
On to `COc1ccc2cc([C@H](C)C(=O)OCC(=O)N(C)CC(=O)OCCCO)ccc2c1`, for which the melting point lay within 41 to 43 °C.
`OCc1ccc(OCc2csc(-c3ccccc3)n2)nc1`: the melting point fell in the range of 134 to 135 °C.
Turning to `COCCCn1c(CO)c(Cl)c2c3c(c(-c4ccccc4Cl)cc21)C(=O)NC3=O`, the melting point lay within 214 to 215 °C.
To `CCCCc1nc(CO)c(C(=O)O)n1Cc1ccc(-c2ccccc2-c2nnn[nH]2)cc1` belongs 215 to 217 °C.
To `c1ccc(-c2nn3c(c2-c2ccc4nsnc4c2)CCC3)nc1` belongs 184 to 186 °C; to `COc1ccc2c(c1)OC(CNCCCOc1cnc3ccccc3c1)CC2` (configuration not stated), 132 to 134 °C; to `O=C(O)c1cc(F)c2cccnc2c1O`, 277 to 279 °C.
With `Cc1ccc(C(=O)COc2ccc(Br)cc2CO)cc1`, the melting point lay within 125 to 127 °C.
`O=C1CCN(c2ccc(CNC(=O)c3cccnc3Oc3ccc(F)cc3)cc2)CC1` returned a melting point of 138 to 139 °C.
For `O=[N+]([O-])c1cc(Cl)c2c(c1)C(F)(C(F)(F)F)C(F)(F)O2` (configuration not stated), the melting point lay within 46 to 47 °C.
To `CC1(CC(=O)Nc2cccc3ncccc23)CCCCC1` belongs 133 to 135 °C; to `CC1(C)CNC(=O)c2cc3nc(-c4ccncc4)[nH]c3cc21`, 231 to 234 °C; to `CC(=CCO)c1ccc(C2CCCCC2)cc1`, 54 to 55 °C.
`OCCCNc1nc(-c2ccc(Cl)c(Cl)c2)nc2ccccc12` gave a melting point of 164 to 166 °C.
In turn, `CCOC(Cn1nc(CC(=O)OC)c2ccccc2c1=O)OCC` had a melting point of 68 °C.
Take `COc1cc(Br)c(S(C)(=O)=O)cc1C(=O)O`: the melting point was 225 to 258 °C.
As for `O=C1CCN(c2ccc(C=C3SC(=O)NC3=O)cc2Br)CC1`, the melting point is over 210 °C.
`CC(C)C[C@H](NC(=O)OCc1ccccc1)C(=O)N[C@@H](Cc1ccccc1)C(=O)CN(C)C` showed a melting point of 81 to 82 °C.
In turn, `COc1ccc2nc3cc(N4CCN(C)CC4)c(=O)cc-3sc2c1` showed a melting point of 208 to 209 °C.
To `ON=Cc1ccc2c(c1)COC2c1ccc(F)cc1` (configuration not stated) belongs 158 to 159 °C.
To `O=C(c1ccc(-c2ccccc2)cc1)C(Br)CC(=O)N1CCC[C@H]1C(=O)O` (some centres not stated) belongs 131 to 133 °C; to `COC(=O)CC(C#N)Cc1ccc(Cl)cc1Cl` (configuration not stated), 86 to 88 °C; to `COc1cccc(C23CCCC=C2C(=O)N(CCc2ccccc2)C(=O)C3)c1` (configuration not stated), 134 to 135 °C.
To `CC1(C)CC(=C(c2ccc(O)cc2)c2ccc(-c3ccccc3C(=O)O)cc2)CC(C)(C)C1` belongs 230 to 231 °C; to `C=C(C#N)CN1CCC(C(N)=O)CC1`, 127 to 129 °C.
Molecule `CCCCCC1COc2cc(C3COC(C4COc5c(cc(F)c(C#N)c5F)C4)OC3)c(F)cc2C1` (configuration not stated) registered a melting point of 111 °C.
Molecule `O=c1cc(O)c(=O)c2ccc(O)cc2[nH]1` displayed a melting point of over 350 °C.
For the molecule `Cc1cc(C)cc(NC(=O)[C@@H](C)NC(=O)c2cc([N+](=O)[O-])c(Cl)c([N+](=O)[O-])c2)c1`, the melting point is 202 to 204 °C.
Molecule `O=C(Nc1cccc([N+](=O)[O-])c1)c1ccccc1SSc1ccccc1C(=O)Nc1cccc([N+](=O)[O-])c1` came in with a melting point of over 270 °C.
In the case of `CC1(C)[C@H]2[C@H](O)OC(=O)[C@H]21`, the melting point was 116 °C.
On to `Cc1c(NC(=O)c2cccc(OCc3ccccc3)c2)ccc2cc(CN3CCCC3)cnc12`, for which the melting point lay in the range of 148 to 149 °C.
As for `O=C(O)CSCCCCCn1nc(-c2ccccc2)c(-c2ccccc2)c1-c1ccccc1`, the melting point lay within 140 to 142 °C.
Regarding `CCOC(=O)C1=C(C)NC(C)=C(C(=O)OC)C1c1cccc(N)c1` (single isomer, unassigned; (-)), the melting point is 173 to 175 °C.
In turn, `Cc1nc(-c2ccccn2)n2cn[nH]c(=O)c12` came in with a melting point of 295 to 297 °C.
To `CC(C)(C)c1ccc(S(=O)(=O)N(Cc2cc(C(C)(C)C)c(O)c(C(C)(C)C)c2)c2cccnc2)cc1` belongs 155 to 156 °C; to `CNCC(O)CN1CCN(CC(O)Cn2c3ccc(Br)cc3c3cc(Br)ccc32)CC1` (configuration not stated), 65 to 75 °C.
For `O=C(O)c1cncn1C(C1CCCCC1)C1CCCCC1`, the melting point is 253 °C.
Molecule `O=c1[nH]c2ccc(S(=O)(=O)Nc3ccc(Cl)cc3Cl)cc2c(=O)o1` yielded a melting point of 215 °C.
As for `COc1cc(N)c(Cl)cc1C(=O)NCC1CCN(CCCOc2ccccc2)CC1`, the melting point lay in the range of 132 to 134 °C.
Molecule `CCCCCCCCCCCCCCOc1ccc(C(=O)N(CC(=O)OC)CC(=O)OC)cc1OCCCCCCCCCCCCCC` gave a melting point of 70 to 71 °C.
To `Fc1ccc(-c2nc(Cl)nc3c2CCC3)cc1` belongs 106 to 107 °C.
Turning to `Cc1ccc(C(=O)OC2CCN(Cc3ccccc3[N+](=O)[O-])CC2)cc1`, the melting point lay in the range of 86 to 87 °C.

(Values after a melting point compilation (Tetko et al.; mined from patent text by program, amines drawn as free bases though some values may be those of a salt).)
